Laboratory results as given in patent US5968751A, “Method for detecting the presence of protein C antibody in a fluid sample” (The Scripps Research Institute, priority 1997, dated 1999).
No end group written: not given here.

Assays:
Factor Xa = target: T1, Factor Xa (Homo sapiens, UniProt P00742); assay: Factor Xa amidolytic activity towards chromogenic substrates; format: biochemical
T1 construct: purchased Enzyme Research Laboratories, Southbend, Ind
Description: To determine the effect of the APC-inhibiting peptides, PC311-325 and PC142-155, on the amidolytic activity of Factor Xa, amidolytic assays as described for APC in Example 5a3 were performed using 0.15 nM Factor Xa in the presence of increasing amounts of peptide. Peptide PC311-325 ranged in concentration from 0 to 100 μM whereas peptide PC142-155 ranged in concentration from 0 to 50 μM.
For the assay, 100 μl of 0.15 nM factor Xa, prepared in Example 5a5) were admixed with separate aliquots of either peptide prepared in TBS-BSA at pH 7.4 containing 0.02% NaN3 and 2 mM CaCl2 to form APC-peptide admixtures. After maintenance of the admixtures for 30 minutes at 37° C., 50 μl of 2.4 mM S-2222 in the same buffer were admixed to initiate the amidolytic reaction. The hydrolysis of the substrate was measured as described before.

APC = APC (Homo sapiens, UniProt P04070); assay: Xa-1-stage coagulation assay, inhibition of APC anticoagulant activity; format: biochemical; design: Protein C consists of a 155 amino acid residue light chain and a 262 amino acid residue heavy chain; from tissue; host or cells: human plasma factor IX concentrate
Chain of APC (P04070 43-197 limits assumed): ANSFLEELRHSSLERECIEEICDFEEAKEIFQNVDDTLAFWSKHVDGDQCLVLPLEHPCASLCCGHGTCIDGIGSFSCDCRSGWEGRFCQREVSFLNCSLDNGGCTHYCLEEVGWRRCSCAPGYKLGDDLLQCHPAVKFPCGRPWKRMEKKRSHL
Chain of APC (P04070 212-450 limits assumed): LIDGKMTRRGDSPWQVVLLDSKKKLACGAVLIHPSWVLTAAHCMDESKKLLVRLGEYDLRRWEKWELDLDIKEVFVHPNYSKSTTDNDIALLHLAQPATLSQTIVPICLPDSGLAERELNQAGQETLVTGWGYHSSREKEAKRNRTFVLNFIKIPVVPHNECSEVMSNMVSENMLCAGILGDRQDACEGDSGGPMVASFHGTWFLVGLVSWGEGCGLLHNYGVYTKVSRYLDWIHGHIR
Description: For testing the inhibition of the synthetic peptides on APC activity described above, Xa-1-stage coagulation assays were also performed as described. See Seegers et al., Thrombosis Res., 13:233-243 (1978); Marlar et al., supra; and Walker et al., J. Biol. Chem., 265:1484-1489 (1990). PC heavy chain-derived peptides listed below in Table 6 and PC light chain-derived peptides listed below in Table 7 were prepared as described above and separately admixed for a final concentration of 2 mM with 120 nM APC in 100 μl of TBS-BSA at pH 7.4 to form separate peptide-APC admixtures. The resulting admixtures were maintained for ten minutes at 37° C. Separate aliquots of peptides maintained under the same conditions in the absence of APC served as controls for the inhibitory effect of synthetic peptides on APC anticoagulant activity. After the maintenance period, 100 μl of NHP and 100 μl of 200 μg/ml of rabbit brain cephalin (Sigma) were admixed into each peptide admixture and maintained for 200 seconds at 37° C. to form pre-coagulation admixtures. In some experiments, Factor VIII deficient plasma (George King Bio-Medical, Inc.) was used in the place of NHP to determine the effect of Factor VIII on the assay system. Coagulation was then initiated by the admixture of 100 μl of 0.62 nM human activated Factor X (Xa) (Enzyme Research Laboratories, Southbend, Ind.) in TBS-BSA containing 30 mM CaCl2 prewarmed to 37° C. to each of the pre-coagulation admixtures.
The time for clot formation was measured by an Electra 700 Automatic Coagulation Timer (Medical Laboratory Automation, Inc., Mount Vernon, N.Y.). Each peptide's effect was determined in duplicate. The results of the inhibition of APC anticoagulant activity by synthetic peptides as measured in Xa-1-stage coagulation assays are presented in Tables 6 and 7 below with the APTT assay results and are presented as the mean values obtained with APTT assays. Data for results with PC heavy chain-derived peptides are shown in Table 6 and data for results with PC light chain-derived peptides are shown in Table 7.
The results of inhibition of APC anticoagulant activity by PC light chain-derived peptides in a Xa-1 stage coagulation assay are shown in Table 7. The assay was performed in the presence of NHP. Peptides used in the assay were prepared as described in Example 1 and are listed in Table 7 by their corresponding residue positions in native PC protein (SEQ ID NO 1). For all peptides except PC142-155 used in the Xa-1 stage assays listed in Table 7, cysteine residues in the native PC amino acid residue sequence were substituted by either serine or glycine in the synthesized peptide. This was done to prevent multiple disulfide formation and subsequent potential polymerization among peptides with multiple cysteines. […]

T1 sequence (P00742 41-179 limits assumed): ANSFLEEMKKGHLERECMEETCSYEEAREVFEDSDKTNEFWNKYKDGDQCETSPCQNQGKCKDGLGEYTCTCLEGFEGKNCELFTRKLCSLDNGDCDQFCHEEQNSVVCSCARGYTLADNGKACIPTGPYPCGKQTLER
T1 sequence (P00742 235-488 limits assumed): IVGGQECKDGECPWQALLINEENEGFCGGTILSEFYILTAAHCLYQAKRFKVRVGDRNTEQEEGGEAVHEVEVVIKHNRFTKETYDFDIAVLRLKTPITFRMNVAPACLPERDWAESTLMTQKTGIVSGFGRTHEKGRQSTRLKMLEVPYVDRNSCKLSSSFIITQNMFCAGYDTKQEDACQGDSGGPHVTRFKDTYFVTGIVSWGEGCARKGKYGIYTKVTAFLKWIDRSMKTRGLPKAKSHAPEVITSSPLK

Molecule	effect on Factor Xa amidolytic activity towards chromogenic substrates (Factor Xa)	IC50 (APC; Xa-1-stage assay in NHP, read-out: 50% inhibition of APC anticoagulant activity)	inhibition at 500 µM (APC; final peptide concentration 500 μM, NHP, 0 = no observable effect +10%)	inhibition of APC anticoagulant activity (APC; Xa-1-stage assay)
KRNRTFVLNFIKIPV-NH2 [PC311-325, Lys-Arg-Asn-Arg-Thr-Phe-Val-Leu-Asn-Phe-Ile-Lys-Ile-Pro-Val]	no significant effect	–	–	–
CSCC[C@H](NC(=O)[C@H](CCCNC(=N)N)NC(=O)[C@H](CCCCN)NC(=O)[C@H](Cc1c[nH]c2ccccc12)NC(=O)[C@@H]1CCCN1C(=O)[C@H](CCCNC(=N)N)NC(=O)CN)C(=O)N[C@@H](CCC(=O)O)C(=O)N[C@@H](CCCCN)C(=O)N[C@@H](CCCCN)C(=O)N[C@@H](CCCNC(=N)N)C(=O)N[C@@H](CO)C(=O)N[C@@H](Cc1c[nH]cn1)C(=O)N[C@@H](CC(C)C)C(=O)N[C@@H](CS)C(N)=O [PC142-155, Gly-Arg-Pro-Trp-Lys-Arg-Met-Glu-Lys-Lys-Arg-Ser-His-Leu]	–	25 µM	80%	–
MHKLREGKWRPKSR [Scrambled peptide, reference compound]	no significant effect	–	–	very little if any significant inhibition
